Laboratory results reported in PubChem BioAssay AID1745844 (Carcinogenic Potency Database (CPDB), 2022).
Activity calls are given as the source filed them. No rule for the calls is given here.

Test system: rodent lifetime carcinogenesis bioassay, tumor incidence TD50
Assay: carcinogenic potency in animals, long-term in vivo studies, CPDB compilation (AID 1745844)

With `O=NN1CCCCCC1` the TD50 (mouse, strain BALB/c, females, by gavage, site: esophagus, lesion: squamous-cell papilloma, dosed 30 weeks, study length 49 weeks) was 19.7 mg/kg/day, the TD50 (mouse, strain BALB/c, females, by gavage, site: liver, lesion: several types, types named in the paper, dosed 30 weeks, study length 49 weeks) was 0.797 mg/kg/day and the TD50 (mouse, strain BALB/c, females, by gavage, site: lung, lesion: several types, types named in the paper, dosed 30 weeks, study length 49 weeks) was 7.44 mg/kg/day. The TD50 (mouse, strain BALB/c, females, by gavage, site: nasal mucosa, lesion: several types, types named in the paper, dosed 30 weeks, study length 49 weeks) was 4.5 mg/kg/day, the TD50 (mouse, strain Charles River CD1, females, by gavage, site: esophagus, lesion: squamous-cell papilloma, dosed 30 weeks, study length 62 weeks) was 12.7 mg/kg/day and the TD50 (mouse, strain Charles River CD1, females, by gavage, site: forestomach, lesion: several types, types named in the paper, dosed 30 weeks, study length 62 weeks) was 5.65 mg/kg/day. For the same compound, the TD50 (mouse, strain Charles River CD1, females, by gavage, site: liver, lesion: several types, types named in the paper, dosed 30 weeks, study length 62 weeks) was 0.746 mg/kg/day, the TD50 (mouse, strain Charles River CD1, females, by gavage, site: lung, lesion: several types, types named in the paper, dosed 30 weeks, study length 62 weeks) was 2.71 mg/kg/day and the TD50 (mouse, strain Charles River CD1, females, by gavage, site: nasal mucosa, lesion: one or several types, types not named, dosed 30 weeks, study length 62 weeks) was 26 mg/kg/day. The TD50 (mouse, strain NZO/BlGd, females, in drinking water, site: esophagus, lesion: several types, types named in the paper, dosed 32 weeks, study length 74 weeks) was 0.725 mg/kg/day, the TD50 (mouse, strain NZO/BlGd, females, in drinking water, site: liver, lesion: hepatocellular carcinoma, dosed 32 weeks, study length 74 weeks) was 3.21 mg/kg/day and the TD50 (mouse, strain NZO/BlGd, females, in drinking water, site: oropharynx, lesion: several types, types named in the paper, dosed 32 weeks, study length 74 weeks) was 6.37 mg/kg/day. For the same compound, the TD50 (mouse, strain NZO/BlGd, females, in drinking water, site: stomach, glandular, lesion: several types, types named in the paper, dosed 32 weeks, study length 74 weeks) was 4.05 mg/kg/day, the TD50 (mouse, strain NZO/BlGd, females, in drinking water, site: stomach, squamous, lesion: several types, types named in the paper, dosed 32 weeks, study length 74 weeks) was 0.415 mg/kg/day and the TD50 (mouse, strain NZO/BlGd, males, in drinking water, site: esophagus, lesion: several types, types named in the paper, dosed 32 weeks, study length 60 weeks) was 0.313 mg/kg/day. It also gave a TD50 (mouse, strain NZO/BlGd, males, in drinking water, site: liver, lesion: hepatocellular carcinoma, dosed 32 weeks, study length 60 weeks) of 8.03 mg/kg/day, a TD50 (mouse, strain NZO/BlGd, males, in drinking water, site: lung, lesion: several types, types named in the paper, dosed 32 weeks, study length 60 weeks) of 1.93 mg/kg/day and a TD50 (mouse, strain NZO/BlGd, males, in drinking water, site: oropharynx, lesion: several types, types named in the paper, dosed 32 weeks, study length 60 weeks) of 1.41 mg/kg/day. For the same compound, the TD50 (mouse, strain NZO/BlGd, males, in drinking water, site: stomach, glandular, lesion: several types, types named in the paper, dosed 32 weeks, study length 60 weeks) was 3.23 mg/kg/day, the TD50 (mouse, strain NZO/BlGd, males, in drinking water, site: stomach, squamous, lesion: several types, types named in the paper, dosed 32 weeks, study length 60 weeks) was 0.448 mg/kg/day and the TD50 (mouse, strain SENCAR, females, by gavage, site: esophagus, lesion: squamous-cell papilloma, dosed 30 weeks, study length 67 weeks) was 6.47 mg/kg/day. For the same compound, the TD50 (mouse, strain SENCAR, females, by gavage, site: forestomach, lesion: several types, types named in the paper, dosed 30 weeks, study length 67 weeks) was 2.25 mg/kg/day, the TD50 (mouse, strain SENCAR, females, by gavage, site: liver, lesion: several types, types named in the paper, dosed 30 weeks, study length 67 weeks) was 1.92 mg/kg/day and the TD50 (mouse, strain SENCAR, females, by gavage, site: lung, lesion: several types, types named in the paper, dosed 30 weeks, study length 67 weeks) was 0.783 mg/kg/day. For the same compound, the TD50 (mouse, strain SENCAR, females, by gavage, site: nasal mucosa, lesion: several types, types named in the paper, dosed 30 weeks, study length 67 weeks) was 6.47 mg/kg/day.

Compound `CC(=O)NN` has a TD50 (mouse, strain Swiss, females, by gavage, site: lung, lesion: several types, types named in the paper, dosed 34 weeks, study length 95 weeks) of 18.8 mg/kg/day, a TD50 (mouse, strain Swiss, females, by gavage, site: lung, lesion: several types, types named in the paper, dosed 95 weeks, study length 95 weeks) of 53.8 mg/kg/day and a TD50 (mouse, strain Swiss, males, by gavage, site: lung, lesion: several types, types named in the paper, dosed 34 weeks, study length 95 weeks) of 4.48 mg/kg/day. It also gave a TD50 (mouse, strain Swiss, males, by gavage, site: lung, lesion: several types, types named in the paper, dosed 95 weeks, study length 95 weeks) of 35.6 mg/kg/day.

For `[O-][Cl+]O`, the TD50 (mouse, strain B6C3F1, females, in drinking water, site: liver, lesion: several types, types named in the paper, dosed 85 weeks, study length 85 weeks) was 3060 mg/kg/day, the TD50 (mouse, strain B6C3F1, males, in drinking water, site: any site (literature study), lesion: several types, types named in the paper, dosed 85 weeks, study length 85 weeks) was 169 mg/kg/day and the TD50 (mouse, strain B6C3F1, males, in drinking water, site: liver, lesion: hyperplastic nodule, dosed 85 weeks, study length 85 weeks) was 146 mg/kg/day. The TD50 (mouse, strain B6C3F1, males, in drinking water, site: liver, lesion: several types, types named in the paper, dosed 85 weeks, study length 85 weeks) was 110 mg/kg/day, the TD50 (mouse, strain B6C3F1, males, in drinking water, site: lung, lesion: adenoma, dosed 85 weeks, study length 85 weeks) was 346 mg/kg/day and the TD50 (mouse, strain B6C3F1, males, in drinking water, site: lung, lesion: several types, types named in the paper, dosed 85 weeks, study length 85 weeks) was 237 mg/kg/day. For the same compound, the carcinogen call (rat, strain Fischer 344, females, in drinking water, site: any site (literature study), lesion: several types, types named in the paper, dosed 85 weeks, study length 85 weeks) was “negative (inactive)” and the carcinogen call (rat, strain Fischer 344, males, in drinking water, site: any site (literature study), lesion: several types, types named in the paper, dosed 85 weeks, study length 85 weeks) was “negative (inactive)”.

`O=S(=O)(O)c1cc(S(=O)(=O)O)c2c(N=Nc3ccccc3)c(O)ccc2c1` was tested, and the carcinogen call (mouse, strain B6C3F1, females, in feed, site: any site (literature study), lesion: several types, types named in the paper, dosed 103 weeks, study length 104 weeks) was “negative (inactive)”, the carcinogen call (mouse, strain B6C3F1, males, in feed, site: any site (literature study), lesion: several types, types named in the paper, dosed 103 weeks, study length 103 weeks) was “negative (inactive)” and the TD50 (mouse, strain B6C3F1, males, in feed, site: lung, lesion: alveolar/bronchiolar adenoma + alveolar/bronchiolar carcinoma, dosed 103 weeks, study length 103 weeks) was 22000 mg/kg/day. For the same compound, the carcinogen call (rat, strain Fischer 344, females, in feed, site: any site (literature study), lesion: several types, types named in the paper, dosed 103 weeks, study length 104 weeks) was “negative (inactive)”, the TD50 (rat, strain Fischer 344, males, in feed, site: any site (literature study), lesion: several types, types named in the paper, dosed 103 weeks, study length 104 weeks) was 2710 mg/kg/day and the TD50 (rat, strain Fischer 344, males, in feed, site: liver, lesion: hepatocellular adenoma + hepatocellular carcinoma + neoplastic nodule, dosed 103 weeks, study length 104 weeks) was 620 mg/kg/day. For the same compound, the TD50 (rat, strain Fischer 344, males, in feed, site: tunica vaginalis, lesion: mesothelioma, NOS + mesothelioma, malignant, dosed 103 weeks, study length 104 weeks) was 915 mg/kg/day (inactive).

For `NC(=S)Nc1cccc2ccccc12`, the carcinogen call (mouse, strain B6AKF1, females, oral dosing, site: any site (literature study), lesion: several types, types named in the paper, dosed 76 weeks, study length 76 weeks) was “negative (inactive)”, the carcinogen call (mouse, strain B6AKF1, females, oral dosing, site: liver, lesion: hepatoma, dosed 76 weeks, study length 76 weeks) was “negative (inactive)” and the carcinogen call (mouse, strain B6AKF1, females, oral dosing, site: lung, lesion: adenoma, dosed 76 weeks, study length 76 weeks) was “negative (inactive)”. The carcinogen call (mouse, strain B6AKF1, males, oral dosing, site: any site (literature study), lesion: several types, types named in the paper, dosed 76 weeks, study length 76 weeks) was “negative (inactive)”, the carcinogen call (mouse, strain B6AKF1, males, oral dosing, site: liver, lesion: hepatoma, dosed 76 weeks, study length 76 weeks) was “negative (inactive)” and the carcinogen call (mouse, strain B6AKF1, males, oral dosing, site: lung, lesion: adenoma, dosed 76 weeks, study length 76 weeks) was “negative (inactive)”. The TD50 (mouse, strain B6C3F1, females, oral dosing, site: any site (literature study), lesion: several types, types named in the paper, dosed 76 weeks, study length 76 weeks) was 5.34 mg/kg/day (inactive), the carcinogen call (mouse, strain B6C3F1, females, oral dosing, site: liver, lesion: hepatoma, dosed 76 weeks, study length 76 weeks) was “negative (inactive)” and the carcinogen call (mouse, strain B6C3F1, females, oral dosing, site: lung, lesion: several types, types named in the paper, dosed 76 weeks, study length 76 weeks) was “negative (inactive)”. For the same compound, the TD50 (mouse, strain B6C3F1, males, oral dosing, site: any site (literature study), lesion: several types, types named in the paper, dosed 76 weeks, study length 76 weeks) was 0.7 mg/kg/day (inactive), the carcinogen call (mouse, strain B6C3F1, males, oral dosing, site: liver, lesion: hepatoma, dosed 76 weeks, study length 76 weeks) was “negative (inactive)” and the TD50 (mouse, strain B6C3F1, males, oral dosing, site: lung, lesion: adenoma, dosed 76 weeks, study length 76 weeks) was 1.27 mg/kg/day (inactive).

With `Nc1ccc(-c2ccccc2)cc1O` the carcinogen call (rat, strain Not specified, females, in feed, site: liver, lesion: one or several types, types not named, dosed 43 weeks, study length 65 weeks) was “negative (inactive)”.

For `ClC(Cl)C(Cl)(Cl)Cl`, the TD50 (mouse, strain B6C3F1, females, by gavage, site: any site (literature study), lesion: several types, types named in the paper, dosed 103 weeks, study length 104 weeks) was 39.5 mg/kg/day, the TD50 (mouse, strain B6C3F1, females, by gavage, site: liver, lesion: hepatocellular adenoma + hepatocellular carcinoma + neoplastic nodule, dosed 103 weeks, study length 104 weeks) was 39.8 mg/kg/day and the TD50 (mouse, strain B6C3F1, females, by gavage, site: liver, lesion: hepatocellular adenoma + hepatocellular carcinoma, dosed 103 weeks, study length 104 weeks) was 39.8 mg/kg/day. It also gave a TD50 (mouse, strain B6C3F1, females, by gavage, site: liver, lesion: hepatocellular adenoma, dosed 103 weeks, study length 104 weeks) of 153 mg/kg/day, a TD50 (mouse, strain B6C3F1, females, by gavage, site: liver, lesion: hepatocellular carcinoma, dosed 103 weeks, study length 104 weeks) of 66.6 mg/kg/day and a TD50 (mouse, strain B6C3F1, females, by gavage, site: lung, lesion: alveolar/bronchiolar adenoma + alveolar/bronchiolar carcinoma, dosed 103 weeks, study length 104 weeks) of 1030 mg/kg/day. It also gave a TD50 (mouse, strain B6C3F1, males, by gavage, site: any site (literature study), lesion: several types, types named in the paper, dosed 103 weeks, study length 104 weeks) of 85.6 mg/kg/day, a TD50 (mouse, strain B6C3F1, males, by gavage, site: liver, lesion: hepatocellular adenoma + hepatocellular carcinoma + neoplastic nodule, dosed 103 weeks, study length 104 weeks) of 107 mg/kg/day and a TD50 (mouse, strain B6C3F1, males, by gavage, site: liver, lesion: hepatocellular adenoma + hepatocellular carcinoma, dosed 103 weeks, study length 104 weeks) of 107 mg/kg/day. The TD50 (mouse, strain B6C3F1, males, by gavage, site: liver, lesion: hepatocellular carcinoma, dosed 103 weeks, study length 104 weeks) was 102 mg/kg/day, the TD50 (rat, strain Fischer 344, females, by gavage, site: any site (literature study), lesion: several types, types named in the paper, dosed 103 weeks, study length 104 weeks) was 1660 mg/kg/day (inactive) and the TD50 (rat, strain Fischer 344, males, by gavage, site: kidney, lesion: tubular-cell adenoma + tubular-cell adenocarcinoma, dosed 103 weeks, study length 104 weeks) was 662 mg/kg/day. For the same compound, the TD50 (rat, strain Fischer 344, males, by gavage, site: kidney, lesion: tubular-cell adenoma, dosed 103 weeks, study length 104 weeks) was 635 mg/kg/day.
